Data from patent publication US7488844B2, “Therapeutic agents” (AstraZeneca AB, priority 2001, dated 2009).

The compounds below were run against T1, PPARγ (Homo sapiens, UniProt P37231) (assay: GAL4-PPARγ ligand binding domain luciferase reporter transactivation in transiently transfected U2-OS cells). Settings: selectivity PPARα over PPARγ.
T1 construct: expressed in transfected cells; host or cells: U2-OS (human osteogenic sarcoma), transient electroporation
T1 sequence (P37231 238-503 limits assumed): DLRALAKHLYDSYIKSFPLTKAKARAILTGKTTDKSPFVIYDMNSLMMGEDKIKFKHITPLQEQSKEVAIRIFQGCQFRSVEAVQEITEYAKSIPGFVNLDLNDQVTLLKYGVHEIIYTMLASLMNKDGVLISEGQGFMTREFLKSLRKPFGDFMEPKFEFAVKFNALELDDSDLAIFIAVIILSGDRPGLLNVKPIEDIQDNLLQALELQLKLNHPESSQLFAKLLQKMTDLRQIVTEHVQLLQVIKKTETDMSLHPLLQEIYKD
Format: cell-based
Procedure: The compounds of Examples 5-9 were tested in the assays described in WO03/051821.
Compounds were dissolved in DMSO to obtain 16 mM stock solutions. Before assays, stock solutions were further diluted in DMSO and culture media.
U2-OS, (Osteogenic sarcoma, Human) was purchased from ATCC, USA. Cells were expanded and refrozen in batches from passage number six. Cells were cultured in Dulbecco's modified Eagle medium (DMEM) with 25 mM glucose, 2 mM glutamin or 4 mM L-alanyl-L-glutamine, 10% fetal calf serum, at 5% CO2. Phosphate buffered saline (PBS) without addition of calcium or magnesium was used. All cell culture reagents were from Gibco (USA) and 96-well cell culture plates were purchased from Wallah.
Standard recombinant DNA techniques were carried out as described by Ausubel (7). The Luciferase reporter vector, pGL5UAS (clone consists of five copies of the GAL4 DNA binding sequence, 5′-[…]-3′, cloned into the SacI/XhoI sites of pGL3-Promoter (Promega). The SacI/XhoI fragment carrying the UAS sites was constructed using annealed overlapping oligonucleotides.
Expression vectors used are based upon pSG5 (Stratagene). All vectors contain an EcoRI/NheI fragment encoding the DNA binding domain of GAL4 (encoding amino acid positions 1-145 of database accession number P04386) followed by an in-frame fusion to a fragment encoding the nuclear localisation sequence from T antigen of Polyoma Virus.
The nuclear localisation sequence was constructed using annealed overlapping oligonucleotides creating NheI/KpnI sticky ends(5′-[…]-3′). The ligand binding domains from human and mouse PPARa and human and mouse PPARy were PCR amplified as KpnI/BamHI fragments and cloned in frame to the GAL4 DNA binding domain and the nuclear localisation sequence. The sequence of all plasmid constructs used were confirmed by sequencing. The following expression vectors were used for transient transfections:
Frozen stocks of cells from passage number six were thawed and expanded to passage number eight before transfections. […]

| Compound | ratio EC50 (PPARγ): EC50 (PPARα) |
| --- | --- |
| CCO[C@@H](Cc1ccc(OCC(=O)N(Cc2ccc(Cl)cc2)Cc2ccc(Cl)cc2)cc1)C(=O)O [Example 22, (2S)-3-(4-{2-[bis(4-Chlorobenzyl)amino]-2-oxoethoxy}phenyl)-2-ethoxypropanoic acid] | >1000 |
| CCO[C@@H](Cc1ccc(OCC(=O)N(Cc2ccc(Cl)cc2)Cc2ccc(C(C)(C)C)cc2)cc1)C(=O)O [Example 23, (2S)-3-(4-{2-[(4-tert-Butylbenzyl)(4-chlorobenzyl)amino]-2-oxoethoxy}phenyl)-2-ethoxypropanoic acid] | >400 |
| CCO[C@@H](Cc1ccc(OCC(=O)N(Cc2ccc(C(F)(F)F)cc2)Cc2ccc(C(F)(F)F)cc2)cc1)C(=O)O [Example 25, (2S)-3-[4-(2-{bis[4-(Trifluoromethyl)benzyl]amino}-2-oxoethoxy)phenyl]-2-ethoxypropanoic acid] | >900 |
